Assay results from paper PMC5078040 (Oncotarget, 2016).

Legend:
PI3Kα = target: T1, PI3Kα (Mus musculus, UniProt P42337); assay: PI3Ks isoform in cell EC50 assay (AKT phosphorylation, Western Blotting); format: cell-based; conditions: NIH-3T3, 20ng/ml PDGF-BB, read-out: cellular EC50 PI3K Alpha
T1 construct: endogenous in cells; host or cells: NIH-3T3

PI3Kβ = target: T2, PI3Kβ (Mus musculus, UniProt Q8BTI9); assay: as above; format: cell-based; conditions: NIH-3T3, 5μM LPA, read-out: cellular EC50 PI3K Beta
T2 construct: endogenous in cells; host or cells: NIH-3T3

AMO-1 = assay: Anti-proliferative assay; format: cell-based; conditions: Homo sapiens, AMO1; AMO-1, MM; 72 hours, CellTiter-Glo
Description: (§1) Cells were grown in 96-well culture plates (3000-4000/well). […] Cell proliferation was determined after treatment with compounds for 72 hours. Cell viability was measured using the CellTiter–Glo Assay Kit (Promega, USA), according to the manufacturer's instructions, and luminescence was measured in a multi-label reader (Envision, PerkinElmer, USA). Data were normalized to control groups (DMSO) and represented by the mean of three independent measurements with standard error <20%. GI50 values were calculated using Prism 5.0 (GraphPad Software, San Diego, CA).

CMK = assay: Anti-proliferative assay; format: cell-based; conditions: Homo sapiens, AML, 72 hours, CellTiter-Glo
Description: as §1

HEL = assay: Anti-proliferative assay; format: cell-based; conditions: Homo sapiens, AML-M6, 72 hours, CellTiter-Glo
Description: as §1

HL-60 = assay: Anti-proliferative assay; format: cell-based; conditions: Homo sapiens; HL-60, AML-M2; 72 hours, CellTiter-Glo
Description: as §1

HT = assay: Anti-proliferative assay; format: cell-based; conditions: Homo sapiens, B-cell lymphoma, 72 hours, CellTiter-Glo
Description: as §1

Hs 505T = assay: Anti-proliferative assay; format: cell-based; conditions: Homo sapiens, CLL, 72 hours, CellTiter-Glo
Description: as §1

JVM-2 = assay: Anti-proliferative assay; format: cell-based; conditions: Homo sapiens; JVM-2, Mantle cell lymphoma; 72 hours, CellTiter-Glo
Description: as §1

MEC-1 = assay: Anti-proliferative assay; format: cell-based; conditions: Homo sapiens, MEC1; MEC-1, CLL; 72 hours, CellTiter-Glo
Description: as §1

MEC-2 = assay: Anti-proliferative assay; format: cell-based; conditions: Homo sapiens, MEC2; MEC-2, CLL; 72 hours, CellTiter-Glo
Description: as §1

MOLM-13 = assay: Anti-proliferative assay; format: cell-based; conditions: Homo sapiens; MOLM-13, AML-M5; 72 hours, CellTiter-Glo
Description: as §1

MOLM-14 = assay: Anti-proliferative assay; format: cell-based; conditions: Homo sapiens; MOLM-14, AML-M5; 72 hours, CellTiter-Glo
Description: as §1

MV4-11 = assay: Anti-proliferative assay; format: cell-based; conditions: Homo sapiens; MV4-11, AML; 72 hours, CellTiter-Glo
Description: as §1

NALM-6 = assay: Anti-proliferative assay; format: cell-based; conditions: Homo sapiens, 72 hours, CellTiter-Glo
Description: as §1

NB4 = assay: Anti-proliferative assay; format: cell-based; conditions: Homo sapiens; NB4, AML-3; 72 hours, CellTiter-Glo
Description: as §1

NOMO-1 = assay: Anti-proliferative assay; format: cell-based; conditions: Homo sapiens; NOMO-1, AML-M5; 72 hours, CellTiter-Glo
Description: as §1

Namalwa = assay: Anti-proliferative assay; format: cell-based; conditions: Homo sapiens, Burrkit lymphoma, 72 hours, CellTiter-Glo
Description: as §1

OCI-AML-2 = assay: Anti-proliferative assay; format: cell-based; conditions: Homo sapiens, OCI-AML2; OCI-AML-2, AML-M4; 72 hours, CellTiter-Glo
Description: as §1

OCI-AML-3 = assay: Anti-proliferative assay; format: cell-based; conditions: Homo sapiens; OCI-AML-3, AML-M4; 72 hours, CellTiter-Glo
Description: as §1

PF382 = assay: Anti-proliferative assay; format: cell-based; conditions: Homo sapiens, PF-382; PF382, ALL; 72 hours, CellTiter-Glo
Description: as §1

RPMI8226 = assay: Anti-proliferative assay; format: cell-based; conditions: Homo sapiens, RPMI-8226; RPMI8226, MM; 72 hours, CellTiter-Glo
Description: as §1

Ramos(new) = assay: Anti-proliferative assay; format: cell-based; conditions: Homo sapiens, Burrkit lymphoma, 72 hours, CellTiter-Glo
Description: as §1

SKM-1 = assay: Anti-proliferative assay; format: cell-based; conditions: Homo sapiens; SKM-1, AML-M5; 72 hours, CellTiter-Glo
Description: as §1

U937 = assay: Anti-proliferative assay; format: cell-based; conditions: Homo sapiens, U-937; U937, AML; 72 hours, CellTiter-Glo
Description: as §1

CLL patient primary cell = assay: Anti-proliferative efficacy against patient primary cells; format: cell-based; conditions: Homo sapiens
Description: Peripheral blood mononuclear cells (PBMCs) from individuals with CLL were isolated by density centrifugation through Ficoll and frozen for each subject. Those subjects with low white counts whose CLL cell purity was expected to be < 85% underwent B cell isolation using RosetteSep. The protocol was approved by the Dana-Farber Harvard Cancer Center Institutional Review Board and all subjects signed written informed consent prior to participation.
as §1

AML patient primary cell = assay: as above; format: cell-based; conditions: Homo sapiens
Description: Mononuclear cells were isolated from AML patients. Mononuclear cells were isolated by density gradient centrifugation through Ficoll-Plaque Plus (Amersham Pharmacia Biotech AB, Uppsala, Sweden) at 2000 rpm for 30 minutes, followed by two washes in 1X PBS. Freeze-thawed cells were then cultured in liquid culture (DMEM, supplemented with 20% FBS). All blood and bone marrow samples from AML patients were obtained through written consent under approval of the Dana Farber Cancer Institute Institutional Review Board. The ethics committees approved the consent procedure.
as §1

PI3Kγ = PI3Kγ (Mus musculus, UniProt Q9JHG7); assay: cell-based
Sequence of PI3Kγ (Q9JHG7 whole entry): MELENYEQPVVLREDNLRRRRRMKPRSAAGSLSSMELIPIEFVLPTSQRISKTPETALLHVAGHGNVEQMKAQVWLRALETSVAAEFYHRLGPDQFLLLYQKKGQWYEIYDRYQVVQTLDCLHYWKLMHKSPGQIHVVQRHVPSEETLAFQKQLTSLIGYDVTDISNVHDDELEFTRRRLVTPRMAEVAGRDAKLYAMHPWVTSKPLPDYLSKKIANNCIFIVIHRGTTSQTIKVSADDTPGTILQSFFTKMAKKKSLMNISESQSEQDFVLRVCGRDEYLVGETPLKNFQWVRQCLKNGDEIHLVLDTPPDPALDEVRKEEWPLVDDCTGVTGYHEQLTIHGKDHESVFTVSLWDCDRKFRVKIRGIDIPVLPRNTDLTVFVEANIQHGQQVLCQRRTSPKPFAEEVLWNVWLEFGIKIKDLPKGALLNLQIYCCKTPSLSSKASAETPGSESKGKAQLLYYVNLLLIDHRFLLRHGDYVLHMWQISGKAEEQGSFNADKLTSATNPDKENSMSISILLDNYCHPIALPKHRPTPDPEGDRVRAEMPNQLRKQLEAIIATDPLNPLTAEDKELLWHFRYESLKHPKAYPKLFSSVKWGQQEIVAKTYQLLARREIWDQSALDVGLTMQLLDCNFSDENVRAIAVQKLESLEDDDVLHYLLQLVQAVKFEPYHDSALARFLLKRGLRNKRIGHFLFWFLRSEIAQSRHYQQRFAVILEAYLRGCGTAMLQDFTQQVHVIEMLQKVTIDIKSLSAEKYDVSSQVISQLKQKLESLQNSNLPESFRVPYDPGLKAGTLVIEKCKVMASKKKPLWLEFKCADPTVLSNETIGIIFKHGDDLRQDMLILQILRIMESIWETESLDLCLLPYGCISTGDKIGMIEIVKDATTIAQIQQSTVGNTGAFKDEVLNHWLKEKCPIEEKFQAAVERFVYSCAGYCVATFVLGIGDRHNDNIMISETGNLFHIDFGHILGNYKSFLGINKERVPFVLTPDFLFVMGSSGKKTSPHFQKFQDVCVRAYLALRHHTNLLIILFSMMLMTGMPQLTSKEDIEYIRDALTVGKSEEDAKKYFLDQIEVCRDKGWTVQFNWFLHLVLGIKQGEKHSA

T1 sequence (P42337 whole entry, canonical isoform): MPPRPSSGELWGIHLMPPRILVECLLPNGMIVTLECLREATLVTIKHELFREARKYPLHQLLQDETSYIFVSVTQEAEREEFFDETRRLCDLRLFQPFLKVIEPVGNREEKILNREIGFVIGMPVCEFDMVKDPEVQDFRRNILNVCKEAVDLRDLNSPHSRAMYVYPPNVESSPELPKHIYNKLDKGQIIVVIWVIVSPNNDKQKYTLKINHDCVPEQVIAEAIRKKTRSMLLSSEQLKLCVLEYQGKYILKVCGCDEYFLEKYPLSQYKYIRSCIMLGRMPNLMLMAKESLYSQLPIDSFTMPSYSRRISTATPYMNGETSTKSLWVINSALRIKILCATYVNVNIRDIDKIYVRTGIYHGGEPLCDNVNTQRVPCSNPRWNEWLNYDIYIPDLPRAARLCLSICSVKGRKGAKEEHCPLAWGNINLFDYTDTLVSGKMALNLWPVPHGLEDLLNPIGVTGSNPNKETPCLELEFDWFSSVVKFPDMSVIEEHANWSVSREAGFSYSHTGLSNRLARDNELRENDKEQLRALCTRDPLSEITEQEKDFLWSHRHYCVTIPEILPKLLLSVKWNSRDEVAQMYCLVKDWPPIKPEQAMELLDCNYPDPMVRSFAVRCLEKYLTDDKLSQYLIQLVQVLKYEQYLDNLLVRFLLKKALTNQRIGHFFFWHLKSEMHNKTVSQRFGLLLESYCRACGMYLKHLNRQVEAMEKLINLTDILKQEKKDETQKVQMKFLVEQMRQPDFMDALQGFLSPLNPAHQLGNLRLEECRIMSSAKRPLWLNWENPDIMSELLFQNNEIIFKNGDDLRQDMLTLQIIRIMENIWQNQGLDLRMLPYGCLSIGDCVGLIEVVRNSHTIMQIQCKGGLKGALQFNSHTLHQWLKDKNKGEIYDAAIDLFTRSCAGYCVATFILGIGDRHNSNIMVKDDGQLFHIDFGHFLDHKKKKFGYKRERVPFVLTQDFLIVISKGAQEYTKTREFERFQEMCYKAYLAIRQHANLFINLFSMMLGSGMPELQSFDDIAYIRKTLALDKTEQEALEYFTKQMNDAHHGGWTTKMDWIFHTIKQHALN
T1 sequence (P26450 whole entry partner, canonical isoform): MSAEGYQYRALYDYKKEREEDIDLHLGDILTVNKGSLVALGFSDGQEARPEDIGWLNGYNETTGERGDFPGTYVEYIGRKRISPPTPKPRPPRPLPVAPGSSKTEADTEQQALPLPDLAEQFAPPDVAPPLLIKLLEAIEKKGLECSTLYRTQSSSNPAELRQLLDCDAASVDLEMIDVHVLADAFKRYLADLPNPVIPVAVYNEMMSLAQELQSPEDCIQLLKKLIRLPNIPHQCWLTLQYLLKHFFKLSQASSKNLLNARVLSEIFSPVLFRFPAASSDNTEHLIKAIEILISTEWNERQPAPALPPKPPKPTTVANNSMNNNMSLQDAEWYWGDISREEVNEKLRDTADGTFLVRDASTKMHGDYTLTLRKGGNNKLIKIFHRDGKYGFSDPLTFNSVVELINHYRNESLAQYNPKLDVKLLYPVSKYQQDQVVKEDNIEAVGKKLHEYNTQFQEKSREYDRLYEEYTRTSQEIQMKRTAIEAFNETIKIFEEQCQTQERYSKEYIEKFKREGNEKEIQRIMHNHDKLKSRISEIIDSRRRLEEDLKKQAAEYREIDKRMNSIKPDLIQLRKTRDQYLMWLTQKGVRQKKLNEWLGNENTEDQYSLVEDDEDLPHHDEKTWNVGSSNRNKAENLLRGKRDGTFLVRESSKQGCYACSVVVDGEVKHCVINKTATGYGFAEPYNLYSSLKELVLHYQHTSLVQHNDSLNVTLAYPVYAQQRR
T2 sequence (Q8BTI9 whole entry): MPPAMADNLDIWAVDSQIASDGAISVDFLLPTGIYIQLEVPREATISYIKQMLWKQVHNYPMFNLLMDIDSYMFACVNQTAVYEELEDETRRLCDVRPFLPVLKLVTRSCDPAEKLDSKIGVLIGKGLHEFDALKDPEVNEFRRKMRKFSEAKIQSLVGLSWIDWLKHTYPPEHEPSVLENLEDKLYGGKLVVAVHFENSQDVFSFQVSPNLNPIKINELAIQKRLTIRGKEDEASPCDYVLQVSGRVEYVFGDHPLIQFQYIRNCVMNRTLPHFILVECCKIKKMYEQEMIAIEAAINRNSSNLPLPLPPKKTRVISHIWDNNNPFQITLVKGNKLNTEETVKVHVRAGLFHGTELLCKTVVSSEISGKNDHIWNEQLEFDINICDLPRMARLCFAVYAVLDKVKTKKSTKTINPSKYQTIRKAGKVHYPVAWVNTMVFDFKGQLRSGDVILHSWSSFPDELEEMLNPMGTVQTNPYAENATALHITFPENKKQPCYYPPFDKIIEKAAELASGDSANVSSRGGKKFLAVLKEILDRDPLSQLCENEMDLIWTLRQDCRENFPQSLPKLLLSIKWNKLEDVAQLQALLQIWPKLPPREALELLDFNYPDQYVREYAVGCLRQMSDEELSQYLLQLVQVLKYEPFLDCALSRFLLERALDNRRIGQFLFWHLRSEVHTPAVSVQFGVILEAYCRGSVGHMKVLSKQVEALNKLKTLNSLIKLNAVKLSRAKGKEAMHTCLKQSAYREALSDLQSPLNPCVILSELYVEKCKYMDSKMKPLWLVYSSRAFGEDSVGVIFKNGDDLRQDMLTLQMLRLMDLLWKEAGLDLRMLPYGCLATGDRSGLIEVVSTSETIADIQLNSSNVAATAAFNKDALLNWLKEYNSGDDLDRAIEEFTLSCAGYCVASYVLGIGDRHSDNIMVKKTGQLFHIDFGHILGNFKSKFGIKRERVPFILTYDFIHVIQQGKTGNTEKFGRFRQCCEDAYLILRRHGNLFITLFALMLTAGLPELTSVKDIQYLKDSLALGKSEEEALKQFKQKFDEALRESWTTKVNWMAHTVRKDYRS
T2 sequence (P26450 whole entry partner): as the sequence (P26450 whole entry partner, canonical isoform) above

Structure (SMILES) | EC50 (PI3Kα) [µM] | EC50 (PI3Kβ) [µM] | GI50 (AMO-1) [µM] | GI50 (CMK) [µM] | GI50 (HEL) [µM] | GI50 (HL-60) [µM] | GI50 (HT) [µM] | GI50 (JVM-2) [µM] | GI50 (MOLM-13) [µM] | GI50 (MOLM-14) [µM] | GI50 (MV4-11) [µM] | GI50 (NALM-6) [µM] | GI50 (NB4) [µM] | GI50 (NOMO-1) [µM] | GI50 (Namalwa) [µM] | GI50 (OCI-AML-2) [µM] | GI50 (OCI-AML-3) [µM] | GI50 (PF382) [µM] | GI50 (RPMI8226) [µM] | GI50 (Ramos(new)) [µM] | further results
CC[C@H](Nc1ncnc2[nH]cnc12)c1nc2cccc(F)c2c(=O)n1-c1ccccc1 [CAL-101, Idelalisib] | > 3 | > 3 | > 10 | > 10 | > 10 | > 10 | > 10 | > 10 | > 10 | 7.8 | > 10 | > 10 | > 10 | > 10 | > 10 | > 10 | 2.4 | > 10 | > 10 | > 10 | GI50 (Hs 505T): > 10 µM; GI50 (MEC-1): > 10 µM; GI50 (MEC-2): > 10 µM; GI50 (SKM-1): > 10 µM; GI50 (U937): > 10 µM; GI50 (CLL patient primary cell; patient primary cell CLL16): > 10 µM; GI50 (CLL patient primary cell; patient primary cell CLL18): > 10 µM; GI50 (CLL patient primary cell; patient primary cell CLL19): > 10 µM; GI50 (AML patient primary cell; AML1, patient primary cell AML1): > 10 µM; GI50 (AML patient primary cell; AML3, patient primary cell AML3): > 10 µM; GI50 (AML patient primary cell; patient primary cell AML2): 1.01 µM; GI50 (AML patient primary cell; patient primary cell AML4): > 10 µM; GI50 (AML patient primary cell; patient primary cell AML5): > 10 µM; GI50 (AML patient primary cell; patient primary cell AML6): > 10 µM; EC50 (PI3Kγ): 2.32 µM
CS(=O)(=O)N1CCN(Cc2cc3nc(-c4cccc5[nH]ncc45)nc(N4CCOCC4)c3s2)CC1 [GDC-0941] | 0.624 | 0.176 | 0.3 | 0.3 | > 10 | 0.16 | 0.5 | > 10 | 0.15 | 0.3 | 1.4 | 0.39 | 1 | 1 | 0.39 | 2 | 0.73 | 0.46 | 2.6 | 2.1 | GI50 (SKM-1): 0.54 µM; GI50 (U937): 1.6 µM
